From PubChem BioAssay AID624254 (Broad Institute, 2012)
Activity calls are given as the source filed them. How the calls were made is not given here.

Molecular target: V. cholerae BH1651 luxOD47E, luciferase light induction, 6 h
Experiment: Luciferase light induction in v cholerae bh1651, agonist dose response, confirmatory (AID 624254)
Details: not given

Compound	AC50
CCCCCCCCOC(=O)C(NC(=O)CCC(=O)Nc1ccc(S(N)(=O)=O)cc1)C(O)c1ccccc1 (centres undefined)	> 50 µM (inactive)
COCc1[nH]nc2c1C1(CCC3(CC1)OCCO3)C(C#N)=C(N)O2	> 50 µM (inactive)
O=C(CN1CCN(c2ccc(F)cc2)CC1)Nc1cc(C(F)(F)F)ccc1Cl	> 50 µM (inactive)
Cc1ccc2cc3c(NC(=O)c4ccco4)nn(C)c3nc2c1	< 0.0235 µM
Cc1noc(C)c1S(=O)(=O)Nc1ccc2c(c1)C(=O)N([C@H](C)CO)C[C@H](C)[C@@H](CN(C)Cc1ccc(C(=O)O)cc1)O2	18.8 µM
O=[N+]([O-])c1ccc(N2CCOCC2)c2c1no[n+]2[O-]	1.74 µM
O=C(Nc1nccs1)C(NS(=O)(=O)c1ccc(Br)s1)c1ccccc1 (centres undefined)	15.8 µM
Cc1noc(C)c1S(=O)(=O)N1CCCC(C(=O)NCCC2=CCCCC2)C1 (centres undefined)	2.64 µM
COC(=O)c1ccccc1NC(=O)Cn1cc2c(n1)CCC(C)C2 (centres undefined)	1.48 µM
COC(=O)C(C)N(c1ccc(C)cc1)S(=O)(=O)c1c(C)[nH]c(=O)[nH]c1=O (centres undefined)	> 50 µM (inactive)

Molecular target: not listed separately
Experiment: as above
Details: V. cholerae BH1651 luxOD47E, luciferase light induction, 6 h; at 50 µM (top of the series)

Compound	activation (light increase)
Oc1ccc(-c2cn3c(n2)SCC3)cc1	inactive
CCc1ccc2c(c1)c1nnc(NN)nc1n2CC	inactive
CCC(C)NS(=O)(=O)c1ccc(S(=O)(=O)Nc2cc3c(cc2C(C)=O)OCO3)cc1 (centres undefined)	inactive
N#Cc1nc(-c2ccc(OCc3ccc(Cl)cc3)cc2)oc1NCc1cccnc1	inactive
O=C(CN1C(=O)COc2ccccc21)c1ccc(Cl)cc1	inactive
CCN(CC(=O)NCc1ccc(Cl)cc1)C(=O)CSc1ccccc1	inactive
CCN(CCNC(=O)C1CCCN(S(=O)(=O)CC)C1)c1ccccc1 (centres undefined)	inactive
COc1cc(C(=O)Nc2ccc(NC(=O)C(C)C)nc2)cc(OC)c1OC	inactive
Cc1cc(=O)oc2ccc(OCc3ccccc3)cc12	inactive
COc1ccc(OCc2cn3c(C)cc(C)nc3n2)cc1	inactive
Cn1cnc(S(=O)(=O)Nc2ccc(OC(C)(C)C)cc2)c1	inactive
COc1ccc(S(=O)(=O)N2CCCCC2)cc1NC(=O)c1ccc(OC)c(OC)c1	inactive
CCCn1nnnc1NCc1ccc(CC)cc1	inactive
Cc1noc(C)c1NC(=O)Nc1cccc2c1O[C@@H](CN(C)S(=O)(=O)c1cccs1)[C@@H](C)CN([C@@H](C)CO)C2=O	inactive
COC(=O)c1nnn(-c2nonc2N)c1CSc1nc2ccccc2s1	inactive
Cc1ccc(-c2cc(C(=O)N3N=C(C(F)F)CC3(O)C(F)F)c3ccccc3n2)cc1C (centres undefined)	inactive
Cc1nc2ccc(C(=O)OCC(=O)N(C)c3ccccc3)cc2nc1C	inactive
COc1cc(NC(=O)c2ccccc2)c(OC)cc1NC(=O)CN1C(=O)N(C)C2(CCCCC2)C1=O	inactive
O=C(COC(=O)CNC(=O)c1ccco1)NCCN1C(=O)CSC1=O	inactive
Cc1c(C(=O)c2ccc(F)cc2F)c2ccccn2c1CCc1ccccn1	inactive

Compound	activation (light increase)
O=c1c2cc(N3CCOCC3)ccc2[nH]c(=S)n1CC1CCCO1 (centres undefined)	inactive
CN(C1CCCCC1)S(=O)(=O)CCNC(=O)c1ccccc1	inactive
O=C(COC(=O)c1ccc(O)cc1)c1ccc2c(c1)OCCO2	inactive
C[C@H]1CN([C@@H](C)CO)C(=O)c2cccc(NC(=O)Nc3ccc4c(c3)OCO4)c2O[C@H]1CN(C)S(=O)(=O)c1ccccc1	inactive
O=C(O)CN1CCN(Cc2ccc(F)cc2Cl)C1=O	inactive
O=C(O)c1[nH]c2ccccc2c1NS(=O)(=O)Cc1ccccc1	inactive
COC(=O)Cn1nc(-c2ccccc2)c2ccccc21	inactive
CC1(C)NC(=O)N(CCOCCOc2ccc3ccccc3c2Br)C1=O	inactive
COc1ccc2nc(SC(C)C(=O)NCC(=O)Nc3ccc(F)c(F)c3F)[nH]c2c1 (centres undefined)	inactive
COCCSc1ccccc1C(=O)Nc1nnc(COC)s1	inactive
Cc1cc(C)c(S(=O)(=O)Nc2ccccn2)c(C)c1	inactive
O=C(NCCOc1ccc(Cl)cc1)c1ccco1	inactive
CC(C)(C)c1ccc(C(=O)OCC(=O)NC2CC2)cc1	inactive
CC(=O)c1cccc(NC(=O)CSc2nc(=O)n(CCN3CCOCC3)c3c2CCCC3)c1	inactive
CCN(CC)c1ccc(CNc2nnnn2C)cc1	inactive
Cc1noc(C)c1NC(=O)Nc1cccc2c1O[C@@H](CN(C)S(=O)(=O)c1cccs1)[C@@H](C)CN([C@H](C)CO)C2=O	inactive
COc1ccc(-c2nnn(CC(=O)c3ccc4c(c3)OCCO4)n2)cc1OC	inactive
CCOC(=O)CC(=O)Nc1nnc(C(C)C)s1	inactive
COCCCn1c(=S)[nH]c2ccc(N3CCOCC3)cc2c1=O	inactive
